These results are taken from patent publication US20210130339A1, “COMPOUNDS” (GLAXOSMITHKLINE INTELLECTUAL PROPERTY DEVELOPMENT LIMITED, priority 2017, published 2021).

Where “and” joins values, the source holds several entries; their conditions need not be identical. Equal entries are not always repeated. Bounds are passed on as bounds.

Experiment [1] addresses T1, recombinant full length LRRK2 (Homo sapiens, UniProt Q5S007).
T1 construct: A BacMam virus expressing full length recombinant LRRK2 was purchased from Invitrogen; host or cells: SH-SY5Y human neuroblastoma cells transduced with BacMam LRRK2 virus (MOI 50)
Briefly: Recombinant cellular LRRK2 AlphaScreen assay. It counts as cell-based. To be noted: LRRK2 Ser935 phosphorylation, SH-SY5Y cells over-expressing recombinant full length LRRK2; read-out: pIC50 in the recombinant cellular LRRK2 AlphaScreen assay (converted). The procedure, abridged:
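SH-SY5Y neuroblastoma cells transduced with BacMam full-length human LRRK2 (MOI 50, 24 h) were treated with compounds for 60 min at 37 °C, top final 10 µM. Lysates probed by AlphaScreen for pSer935 versus total LRRK2; sigmoidal dose-response fit.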
For orientation: In Alpha technology, singlet oxygen from a donor bead excites a nearby acceptor bead.

Experiment [2] has as its target T2, Full length G2019 human LRRK2 (Homo sapiens, UniProt Q5S007).
T2 construct: purified recombinant Full length Flag-LRRK2 in assay buffer; made in house; host or cells: HEK293 6E cells transduced with BacMam virus (virus generated in Sf9 cells)
Kind of experiment: Full length G2019 human LRRK2 Inhibition Mass Spectrometry assay. In kind it is biochemical. To be noted: LRRKtide substrate, RapidFire mass spectrometry; read-out: pIC50 in the Full length G2019 human LRRK2 Inhibition Mass Spectrometry assay (converted). The method, then: a. Full Length G2019 Human LRRK2 Inhibition Mass Spectrometry Assay
This assay for Leucine Rich Repeat Kinase 2 (LRRK2) inhibition is based on the direct measurement of the peptide ‘LRRKtide’ (LRRKtide: RLGRDKYKT*LRQIRQ and “*” refers to the site of phosphorylation.) and phosphorylated ‘LRRKtide’ using a high throughput RapidFire mass spectrometry assay. Inhibitors are compounds that reduce the conversion of LRRKtide to phospho-LRRKtide.
HEK293 6E cells were incubated in a 37° C. incubator with a humidified atmosphere of 5% CO2 on an orbital shaker rotating at 110 rpm. On the day of transduction, the cell viability was higher than 98% and the cell density was in the range of 1×10^6˜1.5×10^6 cells/ml. HEK293 6E cells were centrifuged at 1,000 rpm for 10 min, and then the cells were resuspended in fresh Freestyle 293 expression medium (Invitrogen:12338) with 0.1% F-68 (Invitrogen:24040-032) but without antibiotics (G418) at density of 1×10^6 cells/ml. BacMam virus with Flag-hu LRRK2 (genotypically normal) gene was centrifuged at 40,000 g for 2 hours, then resuspended in fresh Freestyle 293 expression medium. The resuspended virus was added into the cells in at MOI of 10. The cells were incubated in a 37° C. incubator with a humidified atmosphere of 5% CO2 in air on an orbital shaker rotating at 110 rpm. Cultures were harvested at approximately 48 hours post-transduction by centrifugation at 4,000 rpm for 20 min and pellets were frozen for purification.
The suspended cells were lysed by sonication on ice for 30 min (2 secs on/4 sec off, 20% amplitude), and centrifuged at 10,000 rpm for 30 minutes at 4° C. The supernatant was incubated with 1 mL per litre of cell culture of anti-Flag magnetic beads (Sigma-Aldrich: M8823) at 4° C. for 3 hours, then the beads were washed by 5 mL (5 column volume) binding buffer (50 mM Tris pH7.5@ 4C, 500 mM NaCl, 0.5 mM EDTA, 0.1% TritonX-100, 10% glycerol, freshly add 2 mM DTT) for three times. The Flag tagged LRRK2 proteins were eluted by Elution buffer (50 mM Tris pH7.5@ 4C, 500 mM NaCl, 0.5 mM EDTA, 0.1% TritonX-100, 10% glycerol, freshly add 2 mM DTT, 250 ug/ml Flag peptide (Sigma-Aldrich:F3290)) at 4° C. for 2 hours. Flag peptide was removed by Zeba Spin Desalting Columns, 7K MWCO (Thermo-Fisher: 89893) and the buffer of eluted LRRK2 proteins was exchanged into Storage Buffer (50 mM Tris pH7.5@4C, 150 mM NaCl, 0.5 mM EDTA, 0.02% Triton X-100, 2 mM DTT and 50% Glycerol) using Amicon Ultra Centrifugal Filter Units (100 kD) (Merck: UFC910096). Fractions containing LRRK2 proteins were pooled, aliquoted and stored at −80° C. Protein concentration was determined by Bradford protein assay, and protein purity was analyzed by NuPAG Novex 4-12% Bis-Tris Protein Gels (Invitrogen: NP0322BOX).
• 1) A 10 mM test compound was dissolved in 100% DMSO and serially diluted 1 in 4. 100 nL of this dilution series was then added to a 384 well, v bottom polypropylene plate, excluding columns 6 and 18. 100 nL of DMSO was added to columns 6 and 18 as controls wells. Assay dilution gave a top final assay concentration of test compound of 100 μM • 2) 50 μl of 1% formic acid in laboratory grade water was added to column 18 using a multidrop combi dispenser to act as a pre stopped assay control. • 3) 5 μl of ‘enzyme solution’ containing 50 nM of purified recombinant Full length Flag-LRRK2 in assay buffer (50 mM Hepes (pH 7.2), 10 mM MgCl2, 150 mM NaCl, 5% glycerol, 0.0025% triton X-100 and 1 mM DTT) was added to all wells using a multidrop combi dispenser, giving a final assay concentration of 25 nM LRRK2 enzyme. […] Test plates were then incubated for 30 minutes at room temperature. • 4) 5 μl ‘substrate solution’ containing 50 uM LRRKtide peptide substrate and 4 mM ATP was added to all wells of the plate using a multidrop combi dispenser giving a final assay concentration of 25 uM LRRKtide and 2 mM ATP. Test plates were then incubated for 1 hour at room temperature. […]

T1 sequence (Q5S007 whole entry): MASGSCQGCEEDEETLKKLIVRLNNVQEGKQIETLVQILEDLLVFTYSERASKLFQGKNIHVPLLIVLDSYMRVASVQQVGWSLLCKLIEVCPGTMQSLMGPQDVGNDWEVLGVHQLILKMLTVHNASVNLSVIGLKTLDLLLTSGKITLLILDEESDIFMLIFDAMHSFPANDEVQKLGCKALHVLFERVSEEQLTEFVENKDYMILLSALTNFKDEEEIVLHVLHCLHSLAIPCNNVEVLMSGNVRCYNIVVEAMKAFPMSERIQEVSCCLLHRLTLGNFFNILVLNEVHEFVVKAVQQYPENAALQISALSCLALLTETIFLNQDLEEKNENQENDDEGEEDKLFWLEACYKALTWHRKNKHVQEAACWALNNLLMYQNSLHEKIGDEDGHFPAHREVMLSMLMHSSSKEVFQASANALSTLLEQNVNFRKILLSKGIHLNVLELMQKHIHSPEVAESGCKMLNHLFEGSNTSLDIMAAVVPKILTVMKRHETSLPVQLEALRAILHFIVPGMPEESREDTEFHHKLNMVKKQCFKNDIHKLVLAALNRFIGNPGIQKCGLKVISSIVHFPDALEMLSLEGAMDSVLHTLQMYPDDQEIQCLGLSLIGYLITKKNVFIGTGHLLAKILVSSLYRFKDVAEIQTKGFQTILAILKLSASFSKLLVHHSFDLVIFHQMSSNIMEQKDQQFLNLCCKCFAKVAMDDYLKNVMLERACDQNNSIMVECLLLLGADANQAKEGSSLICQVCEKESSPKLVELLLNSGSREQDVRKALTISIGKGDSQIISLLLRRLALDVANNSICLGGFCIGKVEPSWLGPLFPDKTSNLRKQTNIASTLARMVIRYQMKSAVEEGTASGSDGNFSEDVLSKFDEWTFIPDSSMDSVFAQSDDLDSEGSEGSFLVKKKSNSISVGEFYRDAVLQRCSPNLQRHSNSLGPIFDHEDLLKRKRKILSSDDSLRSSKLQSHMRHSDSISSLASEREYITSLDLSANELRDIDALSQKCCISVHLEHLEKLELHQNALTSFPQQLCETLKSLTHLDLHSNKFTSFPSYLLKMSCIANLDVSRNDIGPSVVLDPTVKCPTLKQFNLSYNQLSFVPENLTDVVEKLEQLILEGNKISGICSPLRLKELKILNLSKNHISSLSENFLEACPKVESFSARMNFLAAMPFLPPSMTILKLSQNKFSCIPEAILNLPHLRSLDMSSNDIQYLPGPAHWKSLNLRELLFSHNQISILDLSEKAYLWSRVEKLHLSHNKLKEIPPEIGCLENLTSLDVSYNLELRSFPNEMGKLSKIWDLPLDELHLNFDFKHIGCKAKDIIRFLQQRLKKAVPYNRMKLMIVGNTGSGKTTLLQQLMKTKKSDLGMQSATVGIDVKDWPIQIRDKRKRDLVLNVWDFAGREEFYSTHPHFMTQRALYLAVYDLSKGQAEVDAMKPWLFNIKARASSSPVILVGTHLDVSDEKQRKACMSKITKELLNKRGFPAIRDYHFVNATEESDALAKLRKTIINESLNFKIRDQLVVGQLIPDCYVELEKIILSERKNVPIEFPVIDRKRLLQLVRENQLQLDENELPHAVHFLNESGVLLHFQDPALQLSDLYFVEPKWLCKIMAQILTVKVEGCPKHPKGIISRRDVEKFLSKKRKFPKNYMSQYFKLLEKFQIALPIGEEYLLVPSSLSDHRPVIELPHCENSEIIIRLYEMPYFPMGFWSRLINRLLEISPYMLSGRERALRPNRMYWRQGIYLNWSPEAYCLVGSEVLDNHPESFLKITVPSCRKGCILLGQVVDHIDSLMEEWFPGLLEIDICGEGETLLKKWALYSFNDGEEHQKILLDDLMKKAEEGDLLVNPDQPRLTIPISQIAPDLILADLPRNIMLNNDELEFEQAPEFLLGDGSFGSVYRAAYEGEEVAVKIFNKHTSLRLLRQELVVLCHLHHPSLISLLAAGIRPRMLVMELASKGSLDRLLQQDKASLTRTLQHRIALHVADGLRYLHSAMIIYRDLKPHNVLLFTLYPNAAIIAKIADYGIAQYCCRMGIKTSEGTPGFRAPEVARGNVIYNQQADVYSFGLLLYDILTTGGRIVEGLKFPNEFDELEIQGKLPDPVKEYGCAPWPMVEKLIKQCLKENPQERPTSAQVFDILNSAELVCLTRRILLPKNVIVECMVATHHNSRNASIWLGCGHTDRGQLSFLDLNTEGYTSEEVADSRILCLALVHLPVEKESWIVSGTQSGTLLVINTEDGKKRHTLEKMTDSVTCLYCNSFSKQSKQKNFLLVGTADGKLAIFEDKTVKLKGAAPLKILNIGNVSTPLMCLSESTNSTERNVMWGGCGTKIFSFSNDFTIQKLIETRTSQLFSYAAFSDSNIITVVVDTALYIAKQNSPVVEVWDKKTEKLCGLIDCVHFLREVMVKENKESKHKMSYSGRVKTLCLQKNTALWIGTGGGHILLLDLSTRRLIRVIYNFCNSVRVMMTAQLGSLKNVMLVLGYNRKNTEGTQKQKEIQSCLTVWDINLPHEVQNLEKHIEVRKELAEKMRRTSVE
T2 sequence (Q5S007 with tags, fused parts or gaps R50H): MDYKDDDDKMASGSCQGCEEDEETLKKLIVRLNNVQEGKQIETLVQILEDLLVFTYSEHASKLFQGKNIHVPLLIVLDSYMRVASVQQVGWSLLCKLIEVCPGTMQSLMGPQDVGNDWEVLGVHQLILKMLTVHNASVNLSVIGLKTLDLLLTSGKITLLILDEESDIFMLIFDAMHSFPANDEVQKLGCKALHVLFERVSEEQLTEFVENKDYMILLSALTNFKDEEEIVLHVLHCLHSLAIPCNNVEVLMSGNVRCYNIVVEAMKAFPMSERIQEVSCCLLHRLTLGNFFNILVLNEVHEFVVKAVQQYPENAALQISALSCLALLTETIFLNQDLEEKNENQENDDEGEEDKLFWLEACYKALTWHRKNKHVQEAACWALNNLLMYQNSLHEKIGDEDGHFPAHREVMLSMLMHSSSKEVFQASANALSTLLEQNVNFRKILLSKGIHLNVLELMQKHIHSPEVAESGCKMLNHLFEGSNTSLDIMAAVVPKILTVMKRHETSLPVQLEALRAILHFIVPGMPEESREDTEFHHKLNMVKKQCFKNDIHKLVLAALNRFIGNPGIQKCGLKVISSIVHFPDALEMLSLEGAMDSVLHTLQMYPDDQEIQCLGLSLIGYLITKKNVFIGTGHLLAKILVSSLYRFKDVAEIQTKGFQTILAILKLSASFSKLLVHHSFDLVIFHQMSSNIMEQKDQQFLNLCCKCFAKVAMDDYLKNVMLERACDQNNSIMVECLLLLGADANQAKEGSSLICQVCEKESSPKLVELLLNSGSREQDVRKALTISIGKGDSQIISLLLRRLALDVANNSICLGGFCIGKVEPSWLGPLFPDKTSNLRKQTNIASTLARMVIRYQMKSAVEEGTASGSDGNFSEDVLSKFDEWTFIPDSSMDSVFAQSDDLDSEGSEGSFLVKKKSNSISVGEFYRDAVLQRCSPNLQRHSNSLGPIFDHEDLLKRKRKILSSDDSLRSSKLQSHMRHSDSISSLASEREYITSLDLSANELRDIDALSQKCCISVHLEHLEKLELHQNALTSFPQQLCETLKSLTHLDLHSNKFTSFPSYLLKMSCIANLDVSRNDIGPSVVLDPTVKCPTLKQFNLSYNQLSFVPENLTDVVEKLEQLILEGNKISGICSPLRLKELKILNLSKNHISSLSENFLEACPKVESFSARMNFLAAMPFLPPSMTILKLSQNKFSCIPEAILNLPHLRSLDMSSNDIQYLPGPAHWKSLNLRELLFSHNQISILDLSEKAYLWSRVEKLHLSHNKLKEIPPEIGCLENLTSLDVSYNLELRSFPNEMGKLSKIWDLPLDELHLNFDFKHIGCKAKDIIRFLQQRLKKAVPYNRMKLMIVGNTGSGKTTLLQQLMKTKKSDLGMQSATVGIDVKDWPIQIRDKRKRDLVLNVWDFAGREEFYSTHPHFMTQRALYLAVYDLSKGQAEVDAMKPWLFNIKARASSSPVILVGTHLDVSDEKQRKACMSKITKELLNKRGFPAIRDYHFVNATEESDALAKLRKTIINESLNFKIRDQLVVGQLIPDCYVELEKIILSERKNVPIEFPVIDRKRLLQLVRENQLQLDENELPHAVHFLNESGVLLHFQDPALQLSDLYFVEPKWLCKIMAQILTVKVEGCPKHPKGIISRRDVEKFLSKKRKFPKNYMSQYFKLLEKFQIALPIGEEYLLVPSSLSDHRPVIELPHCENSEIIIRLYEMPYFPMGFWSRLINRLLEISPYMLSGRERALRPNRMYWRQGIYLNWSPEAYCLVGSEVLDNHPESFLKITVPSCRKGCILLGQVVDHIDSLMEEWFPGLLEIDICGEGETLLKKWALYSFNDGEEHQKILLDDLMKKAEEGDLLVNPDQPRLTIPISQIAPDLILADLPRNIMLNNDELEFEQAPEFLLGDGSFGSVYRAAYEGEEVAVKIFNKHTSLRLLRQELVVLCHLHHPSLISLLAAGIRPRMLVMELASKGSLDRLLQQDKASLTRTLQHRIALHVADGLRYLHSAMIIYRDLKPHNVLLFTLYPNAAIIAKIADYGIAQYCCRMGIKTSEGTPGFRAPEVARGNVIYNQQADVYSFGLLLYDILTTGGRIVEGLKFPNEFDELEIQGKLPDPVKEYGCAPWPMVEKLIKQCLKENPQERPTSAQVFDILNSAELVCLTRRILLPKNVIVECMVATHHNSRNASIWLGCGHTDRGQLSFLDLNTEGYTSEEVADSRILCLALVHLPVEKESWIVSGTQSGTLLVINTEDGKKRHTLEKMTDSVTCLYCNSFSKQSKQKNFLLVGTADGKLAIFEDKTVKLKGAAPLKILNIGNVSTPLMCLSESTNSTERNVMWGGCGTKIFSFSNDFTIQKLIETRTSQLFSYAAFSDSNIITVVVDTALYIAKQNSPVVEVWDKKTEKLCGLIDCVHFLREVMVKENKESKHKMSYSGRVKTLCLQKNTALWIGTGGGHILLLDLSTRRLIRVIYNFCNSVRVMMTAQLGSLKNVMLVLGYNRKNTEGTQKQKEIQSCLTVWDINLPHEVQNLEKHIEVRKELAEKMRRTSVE

For the molecule `Cc1nc(N2CCOC(C(C)O)C2)cc(-n2ncc3cc(C)c(C4CCN(C5CCOC5)CC4)cc32)n1` (single isomer, unassigned) [Example E137, 1-(4-(2-methyl-6-(5-methyl-6-(1-(tetrahydrofuran-3-yl)piperidin-4-yl)-1H-indazol-1-yl)pyrimidin-4-yl)morpholin-2-yl)ethanol], the IC50 in experiment [1] was at most 1000 nM; in experiment [2] it was at most 100 nM.

Take `Cc1nc(N2CCOC(C(C)O)C2)cc(-n2ncc3cc(C)c(C4CCN(C5CCOC5)CC4)cc32)n1` (single isomer, unassigned) [Example E138, 1-(4-(2-methyl-6-(5-methyl-6-(1-(tetrahydrofuran-3-yl)piperidin-4-yl)-1H-indazol-1-yl)pyrimidin-4-yl)morpholin-2-yl)ethanol]: the IC50 in experiment [1] is ≤ 100 nM and 63.1 nM; in experiment [2] it was ≤ 100 nM and 25.1 nM.

For the molecule `Cc1nc(N2CCOC(C(C)O)C2)cc(-n2ncc3cc(C)c(C4CCN(C5CCOC5)CC4)cc32)n1` (single isomer, unassigned) [Example E139, 1-(4-(2-methyl-6-(5-methyl-6-(1-(tetrahydrofuran-3-yl)piperidin-4-yl)-1H-indazol-1-yl)pyrimidin-4-yl)morpholin-2-yl)ethanol], the IC50 in experiment [1] and in experiment [2] was at most 1000 nM throughout.

As to `Cc1nc(N2CCOC(C(C)O)C2)cc(-n2ncc3cc(C)c(C4CCN(C5CCOC5)CC4)cc32)n1` (single isomer, unassigned) [Example E140, 1-(4-(2-methyl-6-(5-methyl-6-(1-(tetrahydrofuran-3-yl)piperidin-4-yl)-1H-indazol-1-yl)pyrimidin-4-yl)morpholin-2-yl)ethanol], the figures for the IC50 in experiment [1] and in experiment [2] were at most 1000 nM and at most 100 nM, respectively.

On to `Cc1nc(N2CCOC(C(C)O)C2)cc(-n2ncc3cc(C)c(C4CCN(C5CCOC5)CC4)cc32)n1` (single isomer, unassigned) [Example E141, 1-(4-(2-methyl-6-(5-methyl-6-(1-(tetrahydrofuran-3-yl)piperidin-4-yl)-1H-indazol-1-yl)pyrimidin-4-yl)morpholin-2-yl)ethanol], for which the IC50 in experiment [1] is at most 1000 nM; in experiment [2], at most 100 nM.

In the case of `Cc1nc(N2CCOC(C(C)O)C2)cc(-n2ncc3cc(C)c(C4CCN(C5CCOC5)CC4)cc32)n1` (single isomer, unassigned) [Example E142, 1-(4-(2-methyl-6-(5-methyl-6-(1-(tetrahydrofuran-3-yl)piperidin-4-yl)-1H-indazol-1-yl)pyrimidin-4-yl)morpholin-2-yl)ethanol], the IC50 in experiment [1] and in experiment [2] was at most 1000 nM throughout.

Regarding `Cc1nc(N2CCO[C@H](CO)C2)cc(-n2ncc3cc(C)c(C4CCN(C5COCC5F)CC4)cc32)n1` (single isomer, unassigned) [Example E149], the IC50 in experiment [1] was at most 1000 nM; in experiment [2], at most 100 nM.

As for `Cc1nc(N2CCO[C@H](CO)C2)cc(-n2ncc3cc(C)c(C4CCN(C5COCC5F)CC4)cc32)n1` (single isomer, unassigned) [Example E150], the IC50 in experiment [1] was at most 100 nM; in experiment [2] it was at most 1000 nM.

Consider `Cc1nc(N2CCO[C@H](CO)C2)cc(-n2ncc3cc(C)c(C4CCN(C5COCC5O)CC4)cc32)n1` (single isomer, unassigned) [Example E153], for which the IC50 in experiment [1] and in experiment [2] was at most 100 nM each time.

As to `[2H]c1nn(-c2cc(N3CCO[C@@H](CO)C3)nc(C)n2)c2cc(C3CCN([C@@H]4CCOC4)CC3)c(C)cc12` [Example E94, ((R)-4-(6-(3-deuterium-5-methyl-6-(1-((R)-tetrahydrofuran-3-yl)piperidin-4-yl)-1H-indazol-1-yl)-2-methylpyrimidin-4-yl)morpholin-2-yl)methanol], the IC50 is at most 1000 nM in experiment [1] and at most 100 nM in experiment [2].

Consider `[2H]c1nn(-c2cc(N3CCO[C@@H](CO)C3)nc(C)n2)c2cc(C3CCN([C@H]4CCOC4)CC3)c(C)cc12` [Example E95, ((R)-4-(6-(3-deuterium-5-methyl-6-(1-((S)-tetrahydrofuran-3-yl)piperidin-4-yl)-1H-indazol-1-yl)-2-methylpyrimidin-4-yl)morpholin-2-yl)methanol], for which the IC50 is at most 1000 nM in experiment [1]; ≤ 100 nM and 39.8 nM in experiment [2].

On to `Cc1nc(N2CCO[C@H](CO)C2)cc(-n2ncc3cc(C)c(C4CCN(C5COCC5C)CC4)cc32)n1` (stereo partly drawn) [Example E155, ((2S)-4-(2-methyl-6-(5-methyl-6-(1-(4-methyltetrahydrofuran-3-yl)piperidin-4-yl)-1H-indazol-1-yl)pyrimidin-4-yl)morpholin-2-yl)methanol], for which the IC50 was at most 1000 nM in experiment [1] and at most 100 nM in experiment [2].

In the case of `Cc1nc(N2CCOC(C)(CO)C2)cc(-n2ncc3cc(C)c(C4CCN([C@H]5CCOC5)CC4)cc32)n1` (stereo partly drawn) [Example E156, (2-methyl-4-(2-methyl-6-(5-methyl-6-(1-((S)-tetrahydrofuran-3-yl)piperidin-4-yl)-1H-indazol-1-yl)pyrimidin-4-yl)morpholin-2-yl)methanol], the figures for the IC50 in experiment [1] and in experiment [2] were at most 1000 nM and at most 100 nM, respectively.
